Patent US4782069A, “1,4-Dihydropiridines and their use as antithrombotic drugs” (Alter, S.A., priority 1986, dated 1988)

Experiments:
[1] = system: human platelets (ADP-induced aggregation); assay: "In vitro" aggregation on human platelets (PRP), ADP-induced; assay type: cell-based; conditions: Platelet, 0.25 h, compound 10^-4 M, 37° C., 15 minutes, 2.5 uM ADP
Method: (§1) (Born, G.V.R., Nature 194:927 (1962)).
(§2) Citrated human blood was used, from which platelet-rich plasma (PRP) was prepared. 450 ul PRP aliquots were incubated at 37° C. with the assayed compounds at a single concentration of 10^-4 M for 15 minutes. Aggregating agents (2 ug/ml collagen and 2.5 uM ADP) were added in a 50 ul volume and the aggregation was measured as optical density decrease in the platelet suspension.

[2] = system: human platelets (collagen-induced aggregation); assay: "In vitro" aggregation on human platelets (PRP), collagen-induced; assay type: cell-based; conditions: Platelet, 0.25 h, compound 10^-4 M, 37° C., 15 minutes, 2 ug/ml collagen
Method: as §1, §2

[3] = system: human platelets (ATP secretion); assay: Releasing reaction (ATP secretion from activated platelets), simultaneous to collagen aggregation; assay type: cell-based; conditions: Platelet, 0.25 h, human PRP, compound 10^-4 M, 37° C., 15 minutes, 2 ug/ml collagen
Method: as §2

[4] = system: platelet thromboembolism in mice; assay: "In vivo" thrombosis model in the mouse (collagen + epinephrine i.v.); design: species or system CD-1 Charles River male mice; conditions: suspension in 0.5% carboxymethylcellulose, one to four hours after administration, i.v. 15 ug collagen and 1.8 ug epinephrine
Method: (B) "IN VIVO" THROMBOSIS MODEL (DiMinno, G., Silver, M. J.; J. Pharmacol. Exptl. Ther. 225:57 (1983)).
This is a suitable method for the screening of antithrombotic agents having a primary activity on platelet thormboembolism.
CD-1 Charles River male mice weighing 30 g were used. They received and i.v. injection of 15 ug collagen and 1.8 ug epinephrine in 100 ul of isotonic solution. About the 90% of the animals died or were paralysed for more than 15 minutes.
Drugs were intraperitoneally administered as a suspension in 0.5% carboxymethylcellulose and the protecting effect thereof against thrombosis was measured one to four hours after the administration.

| Structure (SMILES) | inhibition at 100 µM [1] [%] | inhibition at 100 µM [2] [%] | inhibition at 100 µM [3] [%] | Protection % ([4]; 30 mg/kg intraperitoneal) [%] | Protection % ([4]; 60 mg/kg intraperitoneal) [%] |
| --- | --- | --- | --- | --- | --- |
| COC(=O)C1=C(C)NC(C)=C(C(=O)OCCN2C(=O)c3ccccc3S2(=O)=O)C1C (centres unmarked) [Example 2, 2-{N-(1,2-benzisothiazolyl-3(2H)one-1,1-dioxide)} ethyl 2,6-dimethyl-4-methyl-5-methoxycarbonyl-1,4-dihydropyridine-3-carboxylate] | 20 | 48 | 43 | 0 | 42 |
| CCOC(=O)C1=C(C)NC(C)=C(C(=O)OCCN2C(=O)c3ccccc3S2(=O)=O)C1C (centres unmarked) [Example 1, 2-{N-(1,2-benzisothiazolyl-3(2H)one-1,1-dioxide)} ethyl 2,6-dimethyl-5-ethoxycarbonyl-4-methyl-1,4-dihydropyridine-3-carboxylate] | 12 | 84 | 80 | 50 | 70 |
| CC1=C(C(=O)OCCNC(=O)c2ccccc2O)C(C)C(C(=O)OCCN2C(=O)c3ccccc3S2(=O)=O)=C(C)N1 (centres unmarked) [Example 3] | 15 | 24 | 18 | 62 | 62 |
| CCCCC1C(C(=O)OC)=C(C)NC(C)=C1C(=O)OCCN1C(=O)c2ccccc2S1(=O)=O (centres unmarked) [Example 6, 2-{N-(1,2-benzisothiazolyl-3(2H)one-1,1-dioxide)} ethyl 4-n-butyl-2,6-dimethyl-5-methoxycarbonyl-1,4-dihydropyridine-3-carboxylate] | 8 | 15 | 29 | 12 | 34 |
| COC(=O)C1=C(C)NC(C)=C(C(=O)OCN2C(=O)c3ccccc3S2(=O)=O)C1C (centres unmarked) [Example 4, {N-(1,2-benzisothiazolyl-3(2H)one-1,1-dioxide)} methyl 2,6-dimethyl-4-methyl-5-methoxycarbonyl-1,4-dihydropyridine-3-carboxylate] | 5 | 14 | 19 | 20 | 20 |
| CCOC(=O)C1=C(C)NC(C)=C(C(=O)OCN2C(=O)c3ccccc3S2(=O)=O)C1C (centres unmarked) [Example 5, {N-(1,2-benzisothiazolyl-3(2H)one-1,1-dioxide)} methyl 2,6-dimethyl-5-ethoxycarbonyl-4-methyl-1,4-dihydropyridine-3-carboxylate] | 20 | 55 | 51 | 30 | 50 |
| OCCN(CCO)c1nc(N2CCCCC2)c2nc(N(CCO)CCO)nc(N3CCCCC3)c2n1 [DIPYRIDAMOL, reference compound] | – | – | – | 30 | 30 |
